Assay results as given in patent US12478585B2, “Micelles and vesicles for the delivery of glycopeptides” (ARIZONA BOARD OF REGENTS ON BEHALF OF THE UNIVERSITY OF …, priority 2017, dated 2025).

Key:
[1] = literature; cited from earlier work
[2] = CMC determination by DOSY NMR (diffusion coefficients vs inverse concentration, linear regression); type: physicochemical; conditions: for CMC: DOSY, in D2O, Table 1; for CMC, DOSY (Diffusion Coefficients): Table 2
Method: Sample solutions were transferred (500 μL) to 5 mm NMR tubes for automated analysis via Bruker 400 MHz spectrometer. Gradient pulse strengths and delays were standardized for all experiments, with a pulse interval (δ) of 3 ms and diffusion interval (Δ) of 200 ms; these values were experimentally determined to ensure the arrayed diffusion data would provide a reasonable curve for accurate Dc determination.
Stacked data arrays were processed in MestReNova® by setting the appropriate value “k” standardized to known self-diffusion coefficients of the bulk solvent, then applying Bayesian DOSY transform to yield pseudo-2D spectra containing the ^1H NMR spectrum vs diffusion coefficients. Averaged values for samples at each concentration were plotted vs. the inverse concentration. Data points from monomeric and aggregated samples were identified by the first signs of decreasing Dc, and linear regression of the two sets provided an intercept estimated as the CMC. Slope and intercept errors were used to calculate error.
Linear regression of the data sets, i.e. monomers and aggregates, provided an intercept estimated as the CMC. […] CMC's decreased approximately a full order of magnitude when the hydrocarbon chain length increased by two methylene groups as described previously.

[3] = Aggregate radius and aggregation number (Nagg) from DOSY diffusion data (Stokes-Einstein, spherical model); type: physicochemical; conditions: D2O
Method: The Stokes-Einstein equation provided estimated aggregate radii from the recorded diffusion coefficients. Further, Tanford's equations: lc≤lmax≈(0.154+0.1265n)nm and v≈(27.4+26.9n)×[…] nm^3 were used to calculate the critical volume (v) and maximum length (lmax) of the hydrocarbon tail based on the length of the lipid tail, n. Energy-minimized structures in MOE® were measured to find critical length (lc) values.
The average micelle radius (r) was calculated for each concentration of the surfactants (FIG. 9). Using molecular volume (V) calculations from MOE®, a spherical model was used to estimate aggregation numbers (Nagg) for each sample (FIG. 10). In general, these values correspond well to values determined by fluorescence quenching experiments. For samples such as decyl glucoside and dodecyl melibioside, Nagg values greater than 200 are representative of both the fact that larger aggregates will form at high concentrations, and that D2O (and 0.9% NaCl in H2O) induces the formation of higher order structures. Dodecyl melibioside is an example, where previous fluorescence quenching experiments show Nagg averages at 65 in concentrations over 20 mM. For these DOSY experiments Nagg is above 300 at only 5 mM, […], and more likely describing rod-like aggregates.

[4] = Table 2, marked (lit); cited from earlier work
[5] = CMC by surface tensiometry; type: physicochemical; conditions: Table 2
Text: CMC measurements from DOSY experiments agree with previously reported surface tensiometry data for melibiosides and cellobiosides, as well as literature values for the glucosides.

[6] = previous fluorescence quenching experiments, concentrations over 20 mM; cited from earlier work
[7] = Solubility/precipitation behaviour in D2O, 0.9% NaCl and buffers
Method: NMR samples were prepared in triplicate by diluting concentrated stock solutions of the alkyl glycoside or SDS in D2O to concentrations below the known or estimated CMC values. For highly concentrated and/or insoluble samples, vials were warmed in an oil bath until the solution formed and was clear and cooled to RT. Precipitated samples were measured both before and after filtration of the precipitate to observe diffusion behavior. Solutions of the three glucosides were also prepared from 100 mM stock solutions of the glycolipid in dry CHCl3, with addition of D2O to aid solubility and aggregation. Soluble samples were analyzed to determine behavior in apolar conditions.

CCCCCCCCCCO[C@@H]1O[C@H](CO)[C@@H](O)[C@H](O)[C@H]1O [Decyl Glucoside]
a0 [Lit.] (headgroup area) [1]: 42 Å^2 | CMC [2]: 1.9 ± 0.9 mM | CMC, DOSY (Diffusion Coefficients) [2]: 2.1 ± 0.7 mM | radius of "large" aggregates ([3]; samples containing precipitate): 90 Å | radius of "small" aggregates ([3]; samples containing precipitate): 40 Å | CMC, Surface Tens. (lit) [4]: 2.2 mM

CCCCCCCCCCOC1O[C@H](CO[C@H]2O[C@H](CO)[C@H](O)[C@H](O)[C@H]2O)[C@@H](O)[C@H](O)[C@H]1O (some centres unmarked) [Decyl Melibioside]
a0 [Lit.] (headgroup area) [1]: 68 Å^2 | CMC [2]: 3.9 ± 0.1 mM | CMC, DOSY (Diffusion Coefficients) [2]: 3.9 ± 0.1 mM | CMC, Surface Tens. [5]: 3.3 ± 0.2 mM

CCCCCCCCCCCCOC1O[C@H](CO[C@H]2O[C@H](CO)[C@H](O)[C@H](O)[C@H]2O)[C@@H](O)[C@H](O)[C@H]1O (some centres unmarked) [Dodecyl Melibioside]
a0 [Lit.] (headgroup area) [1]: 51 Å^2 | CMC [2]: 0.3 ± 0.00 mM | CMC, DOSY (Diffusion Coefficients) [2]: 0.31 ± 0.005 mM | CMC, Surface Tens. [5]: 0.30 ± 0.02 mM | Nagg average (aggregation number) [6]: 65 | Nagg (aggregation number) ([3]; at 5 mM): above 300

CCCCCCCCOC1O[C@H](CO[C@H]2O[C@H](CO)[C@H](O)[C@H](O)[C@H]2O)[C@@H](O)[C@H](O)[C@H]1O (some centres unmarked) [Octyl Melibioside]
a0 [Lit.] (headgroup area) [1]: 73 Å^2 | CMC [2]: 39.9 ± 5.2 mM | CMC, DOSY (Diffusion Coefficients) [2]: 40 ± 5 mM | CMC, Surface Tens. [5]: 44 ± 5 mM

CCCCCCCCO[C@@H]1O[C@H](CO)[C@@H](O)[C@H](O)[C@H]1O [Octyl Glucoside]
a0 [Lit.] (headgroup area) [1]: 42 Å^2 | CMC [2]: 22.5 ± 2.4 mM | CMC, DOSY (Diffusion Coefficients) [2]: 20 ± 3 mM | CMC, Surface Tens. (lit) [4]: 20 mM

CCCCCCCCCCCCO[C@@H]1O[C@H](CO)[C@@H](O)[C@H](O)[C@H]1O [Dodecyl Glucoside]
a0 [Lit.] (headgroup area) [1]: 34 Å^2 | solubility / precipitation [7]: remained insoluble

CCCCCCCCCCCCOC1O[C@H](CO)[C@@H](O[C@@H]2O[C@H](CO)[C@@H](O)[C@H](O)[C@H]2O)[C@H](O)[C@H]1O (some centres unmarked) [Dodecyl Cellobioside]
a0 [Lit.] (headgroup area) [1]: 49 Å^2 | CMC, DOSY (Diffusion Coefficients) [2]: 0.29 ± 0.4 mM | CMC, Surface Tens. [5]: 0.18 ± 0.01 mM

CCCCCCCCOC1O[C@H](CO)[C@@H](O[C@@H]2O[C@H](CO)[C@@H](O)[C@H](O)[C@H]2O)[C@H](O)[C@H]1O (some centres unmarked) [Octyl Cellobioside]
a0 [Lit.] (headgroup area) [1]: 50 Å^2 | CMC [2]: 19.7 ± 2.2 mM | CMC, DOSY (Diffusion Coefficients) [2]: 21 ± 2 mM | CMC, Surface Tens. [5]: 19 ± 3 mM

CCCCCCCCCCCCOS(=O)(=O)[O-].[Na+] [SDS, reference compound]
a0 [Lit.] (headgroup area) [1]: 61 Å^2 | CMC [2]: 8.5 ± 1.7 mM | CMC, DOSY (Diffusion Coefficients) [2]: 8.4 ± 2 mM | CMC, Surface Tens. (lit) [4]: 8.2 mM

CCCCCCCCCCOC1O[C@H](CO)[C@@H](O[C@@H]2O[C@H](CO)[C@@H](O)[C@H](O)[C@H]2O)[C@H](O)[C@H]1O (some centres unmarked) [Decyl Cellobioside]
a0 [Lit.] (headgroup area) [1]: 50 Å^2 | CMC [2]: 1.8 ± 0.3 mM | CMC, DOSY (Diffusion Coefficients) [2]: 2.2 ± 0.7 mM | CMC, Surface Tens. [5]: 1.8 ± 0.2 mM
